# In ChEMBL document CHEMBL2029202, “Towards a KCC2 blocker pharmacophore model” (Bioorg Med Chem Lett, 2012):
# Biological target: T1, Solute carrier family 12 member 5 (Rattus norvegicus, UniProt Q63633)
# T1 sequence (Q63633 whole entry): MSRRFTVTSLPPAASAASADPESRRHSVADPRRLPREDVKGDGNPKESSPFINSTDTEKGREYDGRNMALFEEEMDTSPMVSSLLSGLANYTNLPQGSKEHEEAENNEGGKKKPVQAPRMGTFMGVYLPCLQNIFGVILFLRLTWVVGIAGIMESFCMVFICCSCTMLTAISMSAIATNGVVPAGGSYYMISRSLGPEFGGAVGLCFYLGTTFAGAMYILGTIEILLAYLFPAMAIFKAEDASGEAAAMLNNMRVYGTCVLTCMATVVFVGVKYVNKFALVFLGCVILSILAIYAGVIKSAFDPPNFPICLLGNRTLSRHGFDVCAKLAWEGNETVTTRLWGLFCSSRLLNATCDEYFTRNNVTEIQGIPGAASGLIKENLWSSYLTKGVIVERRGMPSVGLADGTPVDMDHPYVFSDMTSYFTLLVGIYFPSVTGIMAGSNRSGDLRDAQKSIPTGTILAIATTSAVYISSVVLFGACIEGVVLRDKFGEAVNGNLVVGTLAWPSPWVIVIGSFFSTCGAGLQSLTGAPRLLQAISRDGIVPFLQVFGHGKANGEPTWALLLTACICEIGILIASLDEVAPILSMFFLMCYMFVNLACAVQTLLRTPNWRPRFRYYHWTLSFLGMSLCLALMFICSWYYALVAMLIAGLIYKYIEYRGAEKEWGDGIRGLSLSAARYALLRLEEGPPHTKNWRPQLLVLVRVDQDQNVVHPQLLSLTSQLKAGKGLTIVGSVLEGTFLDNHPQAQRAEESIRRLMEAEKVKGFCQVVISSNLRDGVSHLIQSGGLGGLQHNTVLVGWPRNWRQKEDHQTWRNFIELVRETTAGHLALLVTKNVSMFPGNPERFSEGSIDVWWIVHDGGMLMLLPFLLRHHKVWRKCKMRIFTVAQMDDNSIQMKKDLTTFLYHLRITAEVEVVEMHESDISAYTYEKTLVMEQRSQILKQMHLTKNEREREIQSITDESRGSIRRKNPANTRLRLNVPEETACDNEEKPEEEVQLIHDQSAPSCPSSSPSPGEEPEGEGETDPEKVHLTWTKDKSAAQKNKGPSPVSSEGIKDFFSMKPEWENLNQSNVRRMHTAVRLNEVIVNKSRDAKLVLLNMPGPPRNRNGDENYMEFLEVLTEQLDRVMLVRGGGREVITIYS
# Assay: Inhibition of rat KCC2 expressed in human Sk-Hep cells assessed as […] off Rb+ flux by atomic absorption spectroscopic analysis
# Assay type: cell-based
row,SMILES,IC50 [nM]
1,O=C(c1cc2ccccc2oc1=O)N1CCN(Cc2ccccc2)CC1,4000
2,CC(=O)N1CCCC1(Cc1ccccc1)C1=N[C@H](c2ccccc2)CO1 (mixture of isomers),1300
3,CC(=O)N1CCCC1(Cc1ccccc1)C(=O)OCc1ccccc1 (racemic),800
4,CC(=O)N1CCCC1(Cc1ccc(F)cc1)C(=O)CCc1ccc(F)cc1 (racemic),200
5,CC(=O)N1CCCC1(COCc1ccccc1)Cc1ccccc1 (racemic),20000

# Second part, the molecule after the results:
row,IC50 [nM],SMILES
1,300,CC(=O)N1CCC[C@@]1(Cc1ccccc1)C(=O)OCc1ccccc1
2,50000,CC(=O)N1CCC[C@]1(Cc1ccccc1)C(=O)OCc1ccccc1
3,600,O=C(c1cc2cc(Br)ccc2oc1=O)N1CCN(Cc2ccccc2)CC1
4,200,CC(=O)N1c2ccccc2CC1(Cc1ccccc1)C(=O)OCc1ccccc1 (racemic)
5,300,CC(=O)N1CCCC1(Cc1ccccc1)C(=O)CCc1ccccc1 (racemic)
6,12600,CC(=O)N1CCCC1(Cc1ccccc1)c1nc(-c2ccccc2)co1 (racemic)
7,1000,O=C1CCCC2CCC(Cc3ccccc3)(C(=O)OCc3ccccc3)N12 (racemic)
